Laboratory results from patent US9670227B2, “Thienopyrimidine derivatives, a process for their preparation and pharmaceutical compositions containing them” (LES LABORATOIRES SERVIER, priority 2013, dated 2017).

Columns and labels:
Mcl-1 protein = Mcl-1 protein (UniProtKB primary accession number: Q07820) (Homo sapiens, UniProt Q07820); experiment: Inhibition of Mcl-1 by fluorescence polarisation, Method 1; format: binding; settings: fluorescence polarisation test; Method 2 values are underlined in the patent (underlining not visible here); read-out: IC50 (M) Mcl-1 FP
Outline: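 Buffer of 10 mM HEPES pH 7.4 with 150 mM NaCl and 0.05% Tween 20 held 5 nM Mcl-1 and 1 nM fluorescein-tagged ligand (final). Compounds were tested as 11-point serial dilutions at 5% final DMSO, and binding was read by FP.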

[1] = system: H929 multiple myeloma tumour line; experiment: In vitro cytotoxicity, Microculture Tetrazolium Assay; format: cell-based; settings: Homo sapiens, NCI-H929, 48 h, H929 cells, 48 hours exposure, MTT; read-out: IC50 (μM) MTT H929
Protocol: The cytotoxicity studies were carried out on the H929 multiple myeloma tumour line.
The cells are distributed onto microplates and exposed to the test compounds for 48 hours.

Mcl-1 protein, sequence (Q07820 whole entry): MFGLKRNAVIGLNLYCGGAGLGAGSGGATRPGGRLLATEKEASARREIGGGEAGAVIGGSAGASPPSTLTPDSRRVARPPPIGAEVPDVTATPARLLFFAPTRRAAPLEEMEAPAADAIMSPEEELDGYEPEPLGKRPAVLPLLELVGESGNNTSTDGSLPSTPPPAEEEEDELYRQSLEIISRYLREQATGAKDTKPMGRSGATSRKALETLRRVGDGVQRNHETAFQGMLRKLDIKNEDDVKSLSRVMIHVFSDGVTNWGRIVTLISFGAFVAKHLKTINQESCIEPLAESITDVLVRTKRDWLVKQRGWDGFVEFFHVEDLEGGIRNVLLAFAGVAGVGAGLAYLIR

Row | IC50 (Mcl-1 protein) [M] | SMILES | IC50 [1] [µM]
1 | 3.7e-08 | Cc1c(-c2c(-c3ccc(F)cc3)sc3ncnc(OC(Cc4ccccc4OCc4ccn(CC5CCCCC5)n4)C(=O)O)c23)ccc(OCCN2CCN(C)CC2)c1Cl [Example 15, (2R)-2-{[(5Sa)-5-{3-chloro-2-methyl-4-[2-(4-methylpiperazin-1-yl)ethoxy]phenyl}-6-(4-fluorophenyl)thieno[2,3-d]pyrimidin-4-yl]oxy}-3-(2-{[1-(cyclohexylmethyl)-1H-pyrazol-3-yl]methoxy}phenyl)propanoic acid] | 0.494
2 | 5.9e-09 | Cc1cc(COc2ccccc2CC(Oc2ncnc3sc(-c4ccc(F)cc4)c(-c4ccc(OCCN5CCN(C)CC5)c(Cl)c4C)c23)C(=O)O)ccn1 [Example 16, (2R)-2-{[(5Sa)-5-{3-chloro-2-methyl-4-[2-(4-methylpiperazin-1-yl)ethoxy]phenyl}-6-(4-fluorophenyl)thieno[2,3-d]pyrimidin-4-yl]oxy}-3-{2-[(2-methylpyridin-4-yl)methoxy]phenyl}propanoic acid] | 0.095
3 | 1.2e-08 | Cc1c(-c2c(-c3ccc(F)cc3)sc3ncnc(OC(Cc4ccccc4OCc4ccnc(C(F)(F)F)c4)C(=O)O)c23)ccc(OCCN2CCN(C)CC2)c1Cl [Example 17, (2R)-2-{[(5Sa)-5-{3-chloro-2-methyl-4-[2-(4-methylpiperazin-1-yl)ethoxy]phenyl}-6-(4-fluorophenyl)thieno[2,3-d]pyrimidin-4-yl]oxy}-3-(2-{[2-(trifluoromethyl)pyridin-4-yl]methoxy}phenyl)propanoic acid] | 0.062
4 | 8.3e-09 | Cc1c(-c2c(-c3ccc(F)cc3)sc3ncnc(OC(Cc4ccccc4OCc4ccnc(-c5cccs5)c4)C(=O)O)c23)ccc(OCCN2CCN(C)CC2)c1Cl [Example 18, (2R)-2-{[(5Sa)-5-{3-chloro-2-methyl-4-[2-(4-methylpiperazin-1-yl)ethoxy]phenyl}-6-(4-fluorophenyl)thieno[2,3-d]pyrimidin-4-yl]oxy}-3-(2-{[2-(thiophen-2-yl)pyridin-4-yl]methoxy}phenyl)propanoic acid] | 0.076
5 | 4.4e-09 | Cc1c(-c2c(-c3ccc(F)cc3)sc3ncnc(OC(Cc4ccccc4OCc4ccnc(Cl)c4)C(=O)O)c23)ccc(OCCN2CCN(C)CC2)c1Cl [Example 19, (2R)-2-{[(5Sa)-5-{3-chloro-2-methyl-4-[2-(4-methylpiperazin-1-yl)ethoxy]phenyl}-6-(4-fluorophenyl)thieno[2,3-d]pyrimidin-4-yl]oxy}-3-{2-[(2-chloropyridin-4-yl)methoxy]phenyl}propanoic acid] | 0.064
6 | 6.4e-09 | Cc1c(-c2c(-c3ccc(F)cc3)sc3ncnc(OC(Cc4ccccc4OCc4ccnc(N5CCOCC5)c4)C(=O)O)c23)ccc(OCCN2CCN(C)CC2)c1Cl [Example 20, (2R)-2-{[(5Sa)-5-{3-chloro-2-methyl-4-[2-(4-methylpiperazin-1-yl)ethoxy]phenyl}-6-(4-fluorophenyl)thieno[2,3-d]pyrimidin-4-yl]oxy}-3-(2-{[2-(morpholin-4-yl)pyridin-4-yl]methoxy}phenyl)propanoic acid] | 0.08
7 | 1.6e-08 | COc1cc(COc2ccccc2CC(Oc2ncnc3sc(-c4ccc(F)cc4)c(-c4ccc(OCCN5CCN(C)CC5)c(Cl)c4C)c23)C(=O)O)ccn1 [Example 21, (2R)-2-{[(5Sa)-5-{3-chloro-2-methyl-4-[2-(4-methylpiperazin-1-yl)ethoxy]phenyl}-6-(4-fluorophenyl)thieno[2,3-d]pyrimidin-4-yl]oxy}-3-{2-[(2-methoxypyridin-4-yl)methoxy]phenyl}propanoic acid] | 0.162
8 | 8.3e-09 | COCCOc1cc(COc2ccccc2CC(Oc2ncnc3sc(-c4ccc(F)cc4)c(-c4ccc(OCCN5CCN(C)CC5)c(Cl)c4C)c23)C(=O)O)ccn1 [Example 22, (2R)-2-{[(5Sa)-5-{3-chloro-2-methyl-4-[2-(4-methylpiperazin-1-yl)ethoxy]phenyl}-6-(4-fluorophenyl)thieno[2,3-d]pyrimidin-4-yl]oxy}-3-(2-{[2-(2-methoxyethoxy)pyridin-4-yl]methoxy}phenyl)propanoic acid] | 0.092
9 | 2.4e-08 | Cc1c(-c2c(-c3ccc(F)cc3)sc3ncnc(OC(Cc4ccccc4OCc4ccnc(C(C)(C)C)n4)C(=O)O)c23)ccc(OCCN2CCN(C)CC2)c1Cl [Example 23, (2R)-3-{2-[(2-tert-butylpyrimidin-4-yl)methoxy]phenyl}-2-{[(5Sa)-5-{3-chloro-2-methyl-4-[2-(4-methylpiperazin-1-yl)ethoxy]phenyl}-6-(4-fluorophenyl)thieno[2,3-d]pyrimidin-4-yl]oxy}propanoic acid] | 0.054
10 | 8.1e-09 | Cc1c(-c2c(-c3ccc(F)cc3)sc3ncnc(OC(Cc4ccccc4OCc4ccnc(C(C)C)n4)C(=O)O)c23)ccc(OCCN2CCN(C)CC2)c1Cl [Example 24, (2R)-2-{[(5Sa)-5-{3-chloro-2-methyl-4-[2-(4-methylpiperazin-1-yl)ethoxy]phenyl}-6-(4-fluorophenyl)thieno[2,3-d]pyrimidin-4-yl]oxy}-3-(2-{[2-(propan-2-yl)pyrimidin-4-yl]methoxy}phenyl)propanoic acid] | 0.012
11 | 5.6e-09 | Cc1c(-c2c(-c3ccc(F)cc3)sc3ncnc(OC(Cc4ccccc4OCc4ccnc(C(F)(F)F)n4)C(=O)O)c23)ccc(OCCN2CCN(C)CC2)c1Cl [Example 25, (2R)-2-{[(5Sa)-5-{3-chloro-2-methyl-4-[2-(4-methylpiperazin-1-yl)ethoxy]phenyl}-6-(4-fluorophenyl)thieno[2,3-d]pyrimidin-4-yl]oxy}-3-(2-{[2-(trifluoromethyl)pyrimidin-4-yl]methoxy}phenyl)propanoic acid] | 0.074
12 | 1.1e-08 | Cc1c(-c2c(-c3ccc(F)cc3)sc3ncnc(OC(Cc4ccccc4OCc4ccnc(C5CC5)n4)C(=O)O)c23)ccc(OCCN2CCN(C)CC2)c1Cl [Example 26, (2R)-2-{[(5Sa)-5-{3-chloro-2-methyl-4-[2-(4-methylpiperazin-1-yl)ethoxy]phenyl}-6-(4-fluorophenyl)thieno[2,3-d]pyrimidin-4-yl]oxy}-3-{2-[(2-cyclopropylpyrimidin-4-yl)methoxy]phenyl}propanoic acid] | 0.028
13 | 6.6e-09 | Cc1c(-c2c(-c3ccc(F)cc3)sc3ncnc(OC(Cc4ccccc4OCc4ccnc(-c5ccc(Cl)cc5)n4)C(=O)O)c23)ccc(OCCN2CCN(C)CC2)c1Cl [Example 27, (2R)-2-{[(5Sa)-5-{3-chloro-2-methyl-4-[2-(4-methylpiperazin-1-yl)ethoxy]phenyl}-6-(4-fluorophenyl)thieno[2,3-d]pyrimidin-4-yl]oxy}-3-(2-{[2-(4-chlorophenyl)pyrimidin-4-yl]methoxy}phenyl)propanoic acid] | 0.045
14 | 4.5e-09 | Cc1c(-c2c(-c3ccc(F)cc3)sc3ncnc(OC(Cc4ccccc4OCc4ccnc(C5CCCC5)n4)C(=O)O)c23)ccc(OCCN2CCN(C)CC2)c1Cl [Example 28, (2R)-2-{[(5Sa)-5-{3-chloro-2-methyl-4-[2-(4-methylpiperazin-1-yl)ethoxy]phenyl}-6-(4-fluorophenyl)thieno[2,3-d]pyrimidin-4-yl]oxy}-3-{2-[(2-cyclopentylpyrimidin-4-yl)methoxy]phenyl}propanoic acid] | 0.021
15 | 3.3e-09 | Cc1c(-c2c(-c3ccc(F)cc3)sc3ncnc(OC(Cc4ccccc4OCc4ccnc(-c5ccccc5)n4)C(=O)O)c23)ccc(OCCN2CCN(C)CC2)c1Cl [Example 29, (2R)-2-{[(5Sa)-5-{3-chloro-2-methyl-4-[2-(4-methylpiperazin-1-yl)ethoxy]phenyl}-6-(4-fluorophenyl)thieno[2,3-d]pyrimidin-4-yl]oxy}-3-{2-[(2-phenylpyrimidin-4-yl)methoxy]phenyl}propanoic acid] | 0.007
16 | 7.8e-09 | Cc1c(-c2c(-c3ccc(F)cc3)sc3ncnc(OC(Cc4ccccc4OCc4ccnc(-c5cccs5)n4)C(=O)O)c23)ccc(OCCN2CCN(C)CC2)c1Cl [Example 33, (2R)-2-{[(5Sa)-5-{3-chloro-2-methyl-4-[2-(4-methylpiperazin-1-yl)ethoxy]phenyl}-6-(4-fluorophenyl)thieno[2,3-d]pyrimidin-4-yl]oxy}-3-(2-{[2-(thiophen-2-yl)pyrimidin-4-yl]methoxy}phenyl)propanoic acid] | 0.017
17 | 4.8e-09 | Cc1c(-c2c(-c3ccc(F)cc3)sc3ncnc(OC(Cc4ccccc4OCc4ccnc(-c5ccoc5)n4)C(=O)O)c23)ccc(OCCN2CCN(C)CC2)c1Cl [Example 35, (2R)-2-{[(5Sa)-5-{3-chloro-2-methyl-4-[2-(4-methylpiperazin-1-yl)ethoxy]phenyl}-6-(4-fluorophenyl)thieno[2,3-d]pyrimidin-4-yl]oxy}-3-(2-{[2-(furan-3-yl)pyrimidin-4-yl]methoxy}phenyl)propanoic acid] | 0.027
18 | 1.1e-08 | Cc1c(-c2c(-c3ccc(F)cc3)sc3ncnc(OC(Cc4ccccc4OCc4ccnc(-c5nccs5)n4)C(=O)O)c23)ccc(OCCN2CCN(C)CC2)c1Cl [Example 36, (2R)-2-{[(5Sa)-5-{3-chloro-2-methyl-4-[2-(4-methylpiperazin-1-yl)ethoxy]phenyl}-6-(4-fluorophenyl)thieno[2,3-d]pyrimidin-4-yl]oxy}-3-(2-{[2-(1,3-thiazol-2-yl)pyrimidin-4-yl]methoxy}phenyl)propanoic acid] | 0.015
19 | 6e-09 | CCc1nccc(COc2ccccc2CC(Oc2ncnc3sc(-c4ccc(F)cc4)c(-c4ccc(OCCN5CCN(C)CC5)c(Cl)c4C)c23)C(=O)O)n1 [Example 37, (2R)-2-{[(5Sa)-5-{3-chloro-2-methyl-4-[2-(4-methylpiperazin-1-yl)ethoxy]phenyl}-6-(4-fluorophenyl)thieno[2,3-d]pyrimidin-4-yl]oxy}-3-{2-[(2-ethylpyrimidin-4-yl)methoxy]phenyl}propanoic acid] | 0.014
